The values below come from ChEMBL document CHEMBL3817754, “Synthesis and evaluation of donepezilferulic acid hybrids as multi-target-directed ligands against Alzheimer's disease” (Medchemcomm, 2016).

Data set [1] deals with Acetylcholinesterase (Electrophorus electricus) (UniProt O42275). Briefly: Inhibition of electric eel acetylcholinesterase at 1000 uM preincubated for 5 mins followed by addition of acetylthiocholine iodide as substrate measured after 60 to 120 mins by Ellmans method.
In data set [2] the target is Cholinesterase (Equus caballus) (UniProt P81908). Put plainly: Inhibition of equine serum butyrylcholinesterase at 1000 uM preincubated for 5 mins followed by addition of S-butyrylthiocholine iodide as substrate measured after 60 to 120 mins by Ellmans method. For orientation: Ellman's reagent forms a yellow product with free thiols.
Data set [3] is described as follows: Selectivity index, ratio of IC50 for equine serum butyrylcholinesterase to IC50 for electric eel acetylcholinesterase.
The conditions of data set [4]: DPPH radical solution, 30 min. In general terms: DPPH is a stable violet radical that fades when it is reduced.
Description: Antioxidant activity assessed as DPPH radical scavenging activity incubated in dark for 30 mins by spectrophotometry
For data set [5], the target named is Acetylcholinesterase (Electrophorus electricus, UniProt O42275). Briefly: Inhibition of electric eel acetylcholinesterase preincubated for 5 mins followed by addition of acetylthiocholine iodide as substrate measured after 60 to 120 mins by Ellmans method.
For data set [6], the target named is Cholinesterase (Equus caballus, UniProt P81908). Briefly: Inhibition of equine serum butyrylcholinesterase preincubated for 5 mins followed by addition of S-butyrylthiocholine iodide as substrate measured after 60 to 120 mins by Ellmans method.
In data set [7] the target is Acetylcholinesterase (Homo sapiens, UniProt P22303). Briefly: Inhibition of human erythrocytes acetylcholinesterase preincubated for 5 mins followed by addition of acetylthiocholine iodide as substrate measured after 60 to 120 mins by Ellmans method.
Data set [8] concerns the target Cholinesterase (Homo sapiens, UniProt P06276). Briefly: Inhibition of human serum butyrylcholinesterase preincubated for 5 mins followed by addition of S-butyrylthiocholine iodide as substrate measured after 60 to 120 mins by Ellmans method.
A further data set is filed under the species Homo sapiens. Put plainly: Selectivity index, ratio of IC50 for human serum butyrylcholinesterase to IC50 for human erythrocytes acetylcholinesterase.
The target of data set [9] is Acetylcholinesterase (Electrophorus electricus) (UniProt O42275). Briefly: Mixed-type inhibition of electric eel acetylcholinesterase at 0.2 to 0.8 uM preincubated for 5 mins followed by addition of acetylthiocholine iodide as substrate measured after 60 to 120 mins by Lineweaver-Burk plot analysis.
The target in data set [10] is Cholinesterase (Equus caballus) (UniProt P81908). Put plainly: Mixed-type inhibition of equine serum butyrylcholinesterase at 0.5 to 2 uM preincubated for 5 mins followed by addition of S-butyrylthiocholine iodide as substrate measured after 60 to 120 mins by Lineweaver-Burk plot analysis.
Data set [11] is described as follows: Cytotoxicity against […] PC12 cells assessed as cell viability at 20 uM after 24 hrs by MTT assay. Type of data set: cell-based. As to conditions: rat, pc-12, 24 h.
The test system of the next data set is PC-12. Put plainly: Neuroprotective activity against H2O2 induced damage in […] PC12 cells assessed as cell viability at 1 to 10 uM preincubated for 4 hrs followed by H2O2 challenge for 20 hrs by MTT assay. Type of data set: functional, cell-based. As to conditions: Rattus norvegicus.
Data set [12] is described as follows: Metal chelating activity assessed as copper-compound complex formation at 75 uM after 30 mins by UV-vis spectrometry. Type of data set: physicochemical. As to conditions: 0.5 h.
A short description of data set [13]: Metal chelating activity assessed as ferrous-compound complex formation at 75 uM after 30 mins by UV-vis spectrometry. The format is physicochemical. The conditions noted are these: 0.5 h.
Data set [14] in a line: Metal chelating activity assessed as ferric-compound complex formation at 75 uM after 30 mins by UV-vis spectrometry. Type of data set: physicochemical. As to conditions: 0.5 h.
The nature of data set [15]: Metal chelating activity assessed as zinc-compound complex formation at 75 uM after 30 mins by UV-vis spectrometry. As to conditions: 0.5 h. Type of data set: physicochemical.
The nature of the next data set: in vitro. As to conditions: PAMPA. For orientation: In PAMPA a lipid-coated filter parts donor from acceptor wells.

One may read the IC50 as the concentration at which inhibition is half-maximal. A higher IC50 goes with a need for much substance. The Papp is a coefficient for how fast a substance crosses the barrier. Lower therefore signals poor permeation.

Activity calls are given as the source filed them. The rule behind the calls is not given here.

Chain of Cholinesterase (Equus caballus) (P81908 whole entry): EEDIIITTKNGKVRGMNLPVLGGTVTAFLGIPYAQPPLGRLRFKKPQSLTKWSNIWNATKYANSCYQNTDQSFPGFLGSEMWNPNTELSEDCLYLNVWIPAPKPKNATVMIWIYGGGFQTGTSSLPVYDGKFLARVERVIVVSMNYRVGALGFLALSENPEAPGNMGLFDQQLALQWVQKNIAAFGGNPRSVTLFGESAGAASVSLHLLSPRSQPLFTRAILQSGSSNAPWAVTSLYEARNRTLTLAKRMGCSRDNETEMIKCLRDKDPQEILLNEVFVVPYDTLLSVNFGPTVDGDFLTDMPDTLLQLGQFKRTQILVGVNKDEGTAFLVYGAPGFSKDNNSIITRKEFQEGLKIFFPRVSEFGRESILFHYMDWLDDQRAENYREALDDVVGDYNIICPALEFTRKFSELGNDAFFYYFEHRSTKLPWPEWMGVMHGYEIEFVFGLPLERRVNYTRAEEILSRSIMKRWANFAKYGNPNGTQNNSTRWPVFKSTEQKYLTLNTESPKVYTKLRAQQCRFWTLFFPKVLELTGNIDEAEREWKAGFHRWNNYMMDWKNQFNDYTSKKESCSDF
Chain of Acetylcholinesterase (Electrophorus electricus) (O42275 24-633 limits assumed): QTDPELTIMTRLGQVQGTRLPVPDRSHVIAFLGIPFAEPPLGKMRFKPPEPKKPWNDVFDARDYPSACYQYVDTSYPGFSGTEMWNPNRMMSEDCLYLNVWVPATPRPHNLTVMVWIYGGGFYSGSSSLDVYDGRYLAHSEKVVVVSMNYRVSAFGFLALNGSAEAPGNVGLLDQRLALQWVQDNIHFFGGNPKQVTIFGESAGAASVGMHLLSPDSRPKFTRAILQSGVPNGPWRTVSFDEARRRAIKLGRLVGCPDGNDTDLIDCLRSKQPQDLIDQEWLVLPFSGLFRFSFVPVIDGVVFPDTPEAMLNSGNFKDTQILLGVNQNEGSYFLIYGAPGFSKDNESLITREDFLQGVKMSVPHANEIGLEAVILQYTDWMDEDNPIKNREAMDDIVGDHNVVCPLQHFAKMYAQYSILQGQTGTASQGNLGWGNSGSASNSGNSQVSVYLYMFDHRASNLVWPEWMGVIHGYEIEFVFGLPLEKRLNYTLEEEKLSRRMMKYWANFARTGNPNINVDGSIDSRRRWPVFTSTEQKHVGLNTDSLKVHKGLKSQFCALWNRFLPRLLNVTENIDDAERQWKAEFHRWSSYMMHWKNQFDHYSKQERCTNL
Chain of Cholinesterase (Equus caballus, UniProt P81908) (P81908 whole entry): as the sequence (P81908 whole entry) above
Chain of Cholinesterase (Homo sapiens, UniProt P06276) (P06276 whole entry): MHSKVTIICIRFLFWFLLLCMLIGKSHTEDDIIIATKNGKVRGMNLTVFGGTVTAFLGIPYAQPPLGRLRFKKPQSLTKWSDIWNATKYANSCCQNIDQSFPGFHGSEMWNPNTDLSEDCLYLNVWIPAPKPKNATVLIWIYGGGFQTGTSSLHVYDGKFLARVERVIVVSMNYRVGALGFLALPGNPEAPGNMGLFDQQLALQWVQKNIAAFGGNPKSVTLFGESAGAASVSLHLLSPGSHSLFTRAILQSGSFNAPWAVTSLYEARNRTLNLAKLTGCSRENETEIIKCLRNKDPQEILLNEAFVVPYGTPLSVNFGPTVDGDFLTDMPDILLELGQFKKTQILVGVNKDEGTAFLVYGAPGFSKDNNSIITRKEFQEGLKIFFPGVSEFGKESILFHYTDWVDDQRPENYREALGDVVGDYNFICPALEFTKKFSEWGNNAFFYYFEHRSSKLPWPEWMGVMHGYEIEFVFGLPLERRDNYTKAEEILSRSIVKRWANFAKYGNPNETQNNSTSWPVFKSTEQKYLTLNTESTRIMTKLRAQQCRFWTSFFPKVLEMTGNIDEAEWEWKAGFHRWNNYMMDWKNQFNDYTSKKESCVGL
Chain of Acetylcholinesterase (Electrophorus electricus, UniProt O42275) (O42275 whole entry): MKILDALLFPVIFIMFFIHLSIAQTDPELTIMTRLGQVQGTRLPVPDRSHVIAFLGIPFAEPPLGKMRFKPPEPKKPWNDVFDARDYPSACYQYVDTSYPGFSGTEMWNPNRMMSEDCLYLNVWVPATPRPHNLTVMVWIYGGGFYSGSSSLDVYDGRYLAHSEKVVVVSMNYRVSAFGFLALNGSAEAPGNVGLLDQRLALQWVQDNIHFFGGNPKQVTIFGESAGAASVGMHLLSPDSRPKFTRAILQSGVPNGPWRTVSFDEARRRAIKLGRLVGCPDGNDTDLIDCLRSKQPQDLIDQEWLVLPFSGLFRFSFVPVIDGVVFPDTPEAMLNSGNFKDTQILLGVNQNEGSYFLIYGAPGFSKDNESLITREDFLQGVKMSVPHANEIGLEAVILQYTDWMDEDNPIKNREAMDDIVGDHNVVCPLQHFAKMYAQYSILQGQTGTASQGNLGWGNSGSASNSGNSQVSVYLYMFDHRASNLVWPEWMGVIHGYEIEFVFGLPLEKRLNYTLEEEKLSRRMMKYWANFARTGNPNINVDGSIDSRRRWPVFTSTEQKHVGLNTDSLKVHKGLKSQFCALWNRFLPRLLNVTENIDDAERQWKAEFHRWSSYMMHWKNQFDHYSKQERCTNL
Chain of Acetylcholinesterase (Homo sapiens, UniProt P22303) (P22303 whole entry): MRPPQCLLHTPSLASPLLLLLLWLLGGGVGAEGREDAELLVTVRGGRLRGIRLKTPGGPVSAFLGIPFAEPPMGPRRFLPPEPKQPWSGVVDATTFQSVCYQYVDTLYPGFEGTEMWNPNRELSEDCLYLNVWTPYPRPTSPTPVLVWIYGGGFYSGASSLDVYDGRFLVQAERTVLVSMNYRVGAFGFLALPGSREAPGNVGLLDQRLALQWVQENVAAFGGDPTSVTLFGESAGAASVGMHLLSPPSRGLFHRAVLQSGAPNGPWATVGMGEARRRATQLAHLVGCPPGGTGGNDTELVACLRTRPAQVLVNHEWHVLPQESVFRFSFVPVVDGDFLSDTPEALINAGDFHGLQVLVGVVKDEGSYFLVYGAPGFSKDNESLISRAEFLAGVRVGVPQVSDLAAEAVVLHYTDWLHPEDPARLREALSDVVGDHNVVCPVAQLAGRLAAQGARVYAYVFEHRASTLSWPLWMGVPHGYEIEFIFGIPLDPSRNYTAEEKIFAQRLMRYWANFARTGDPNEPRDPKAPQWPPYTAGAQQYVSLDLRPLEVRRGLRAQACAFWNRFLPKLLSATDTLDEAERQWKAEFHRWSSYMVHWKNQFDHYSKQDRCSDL

Regarding `COc1cc(/C=C/C(=O)O)ccc1O` [FERULATE], the inhibition entry in data set [1] and in [2] was “inactive” each time. In data set [3], the Ratio IC50 amounted to 4.95. The compound also displayed an IC50 in [4] of 30.6 µM.

With `COc1cc(/C=C/C(=O)NCCC2CCN(Cc3ccccc3)CC2)cc(OC)c1O`, the IC50 was 0.398 µM against Acetylcholinesterase [5]; 0.976 µM against Cholinesterase [6]; 0.321 µM on Acetylcholinesterase [7]; 1.22 µM on Cholinesterase [8]; 24.9 µM in [4]. In addition, the results for the Ratio IC50 (in data set [3]; in the data set listed under Homo sapiens) were 2.2 and 3.8, respectively. Besides, the inhibition result in [9] and in data set [10] was “Active” in each case. The Activity entry in data set [11] is reported as “Non-toxic”; in data set [12] it was “Active”; in [13], “Not Active”; in data set [14], “Not Active”; in data set [15] it was “Not Active”. The result in the data set on PC-12 was Active. The Papp at 16 h, 5 mg/mL in the data set “in vitro” was found to be 7.68 ×10⁻⁶ cm/s.

Regarding `NC1CCN(Cc2ccccc2)CC1`, the inhibition entry in data set [1] and in data set [2] was “inactive” in each case.

`COc1cc(/C=C/C(=O)CC(=O)/C=C/c2ccc(O)c(OC)c2)ccc1O` [CURCUMIN]: the inhibition result in [1] and in [2] was “inactive” throughout. For the same compound, the Ratio IC50 in data set [3] was determined as 4.43. The same compound gave an IC50 in data set [4] of 23.3 µM.

`O=C(/C=C/c1ccc(O)c(O)c1)NCCC1CCN(Cc2ccccc2)CC1`: the IC50 against Acetylcholinesterase [5] turned out to be 5.17 µM; at Cholinesterase [6], 165 µM; at Acetylcholinesterase [7], 1.45 µM; on Cholinesterase [8] it was 145 µM; in data set [4], 10.7 µM. Moreover, the Ratio IC50 in data set [3] was 31.9; in the data set listed under Homo sapiens it was 100. The Activity result in data set [11] is “Non-toxic”. For the same compound, the result in the data set with PC-12 was Active. In “in vitro”, this compound came in with a Papp at 16 h, 5 mg/mL of 5.38 ×10⁻⁶ cm/s.
